We go through eight compounds from patent US9107408B2, “Plant disease controlling composition and method for controlling plant disease” (SUMITOMO CHEMICAL COMPANY, LIMITED, priority 2010, dated 2015).

The test system of this assay is gray mold fungus (Botrytis cinerea). In words: Cucumber leaf disk preventive test against gray mold fungus. To be noted: for pest or weed control at 0.5 ppm / pest or weed control at 5 ppm: Botrytis cinerea, foliar, 96 h, read-out: preventive value (%). It counts as in vivo. The procedure: True leaf of cucumber is punched out with cork borer to 13 mm in diameter to prepare a leaf disk. In 24 well microwell plate that is dispensed with 1 ml 0.8% water agar, the leaf disk is placed such that the upper side of the leaf is in an upward direction. Thereto is added 20 micro liter a testing solution prepared by mixing a dimethyl sulfoxide solution of the present compound (racemate) and a dimethyl sulfoxide solution of tebuconazole to a predetermined concentration to treat the leaf disk.
After confirming that the testing medical solution is dried, conidium of gray mold fungus (Botrytis cinerea) is suspended into potato dextrose broth (DIFCO) in a density of about 10^5 conidium/mL and is then subjected to a spray inoculation. After leaving to stand the leaf disk in a growth chamber set up at 15° C. for four days, an onset area on the leaf is measured and then calculated an onset area rate (hereinafter, referred to as an onset area rate of treated group).
The same operation is carried out with 20 micro liter water instead of 20 micro liter a testing medicine solution to calculate an onset area rate (hereinafter, referred to an onset area rate of non-treated group).
A preventive value is calculated from the above onset area rate of treated group and the onset area rate of non-treated group by the following equation: Preventive value (%)=100×(A−B)/A
A: an onset area rate of treated group
B: an onset area rate of non-treated group
The same operations as described in Test Example 1 are carried out with triadimenol, bitertanol, oxpoconazole fumarate, cyazofamid, pefurazoate, triflumizole, or hymexazol instead of tebuconazole, so as to calculate respective preventive values.
Also for comparison, the same operations as described in Test Example 1 are carried out with the exception that the testing medicine solution is substituted with a predetermined concentration of each dimethyl sulfoxide solution of the present compound (racemate), triadimenol, bitertanol, oxpoconazole fumarate, cyazofamid, pefurazoate, triflumizole, or hymexazol, so as to calculate respective preventive values.
For comparison, the same operations as described in Test Example 1 are carried out with the exception that the testing medicine solution is substituted with a predetermined concentration of a dimethyl sulfoxide solution of tebuconazole, so as to calculate a preventive value.

The mark [1] stands for this setting: azole compound alone 0.5 ppm, cucumber leaf disk, 15° C., four days.
Setting [2] is: azole compound alone 5.0 ppm, cucumber leaf disk, 15° C., four days.

Like-named read-outs stand apart in the source and are kept apart here.

`CC(C)(C)C(O)C(Oc1ccc(-c2ccccc2)cc1)n1cncn1` (stereo not shown) [bitertanol]: under setting [1], the pest or weed control at 0.5 ppm is 45%. Also, the pest or weed control at 5 ppm under setting [2] was 56%.
The matching figures for `Cc1ccc(-c2c(Cl)nc(C#N)n2S(=O)(=O)N(C)C)cc1` [cyazofamid]: 10% and 15%.
The matching figures for `Cc1cc(O)no1` [hymexazol]: 5% and 10%.
Turning to `CC1(C)COC(C)(CCCc2ccc(Cl)cc2)N1C(=O)n1ccnc1.CC1(C)COC(C)(CCCc2ccc(Cl)cc2)N1C(=O)n1ccnc1.O=C(O)/C=C/C(=O)O` (stereo not shown) [oxpoconazole fumarate], the “preventive value (%)” value by setting is: under setting [1], 49%; under setting [2], 59%.
`C=CCCCOC(=O)C(CC)N(Cc1ccco1)C(=O)n1ccnc1` (stereo not shown) [pefurazoate]: the pest or weed control at 0.5 ppm is 44% and the pest or weed control at 5 ppm was found to be 53%.
On to `CC(C)(C)C(O)(CCc1ccc(Cl)cc1)Cn1cncn1` (stereo not shown) [tebuconazole], for which the pest or weed control at 0.5 ppm under setting [1] is 40%. The pest or weed control at 5 ppm under setting [2] is 54%.
For `CC(C)(C)C(O)C(Oc1ccc(Cl)cc1)n1cncn1` (stereo not shown) [triadimenol], the pest or weed control at 0.5 ppm under setting [1] is 45%. For the same compound, under setting [2], the pest or weed control at 5 ppm was 58%.
Regarding `CCCOC/C(=N\c1ccc(Cl)cc1C(F)(F)F)n1ccnc1` [triflumizole], under setting [1], the pest or weed control at 0.5 ppm is 44%. Moreover, under setting [2], the pest or weed control at 5 ppm came out at 57%.
